# Values of other authors, collected in PMC7439511 (Science Advances, 2020).
# Tested on: RACK7 (ZMYND8)
row,Substance,RACK7 binding to N-terminal tail of histone H3
1,"H3K4me0: H3K4me0 (H3) peptide, amino acids 1 to 21",bind
2,"H3K4me1: H3K4me1 peptide, amino acids 1 to 21",bind
